Source: the kinase profiling compilation of Christmann-Franck et al. (2016)
Several values for one entry are separate records, joined by “and”; a condition that tells them apart may be missing. Identical values can stand only once.

Legend:
Experiment in all cases: KINOMEscan competition binding
Settings in all cases: compound 10.0 µM
HIPK2 (human) = HIPK2 (human) (UniProt Q9H2X6)
STK32A (human) = STK32A (human) (UniProt Q8WU08)
SRPK2 (human) = SRPK2 (human) (UniProt P78362)
SGK3 (human) = SGK3 (human) (UniProt Q96BR1)
RPS6KA6 KD1 (human) = RPS6KA6 KD1 (human) (UniProt Q9UK32)
TNK2 (human) = TNK2 (human) (UniProt Q07912)
TNK2 (human), sequence (Q07912 whole entry, looked up): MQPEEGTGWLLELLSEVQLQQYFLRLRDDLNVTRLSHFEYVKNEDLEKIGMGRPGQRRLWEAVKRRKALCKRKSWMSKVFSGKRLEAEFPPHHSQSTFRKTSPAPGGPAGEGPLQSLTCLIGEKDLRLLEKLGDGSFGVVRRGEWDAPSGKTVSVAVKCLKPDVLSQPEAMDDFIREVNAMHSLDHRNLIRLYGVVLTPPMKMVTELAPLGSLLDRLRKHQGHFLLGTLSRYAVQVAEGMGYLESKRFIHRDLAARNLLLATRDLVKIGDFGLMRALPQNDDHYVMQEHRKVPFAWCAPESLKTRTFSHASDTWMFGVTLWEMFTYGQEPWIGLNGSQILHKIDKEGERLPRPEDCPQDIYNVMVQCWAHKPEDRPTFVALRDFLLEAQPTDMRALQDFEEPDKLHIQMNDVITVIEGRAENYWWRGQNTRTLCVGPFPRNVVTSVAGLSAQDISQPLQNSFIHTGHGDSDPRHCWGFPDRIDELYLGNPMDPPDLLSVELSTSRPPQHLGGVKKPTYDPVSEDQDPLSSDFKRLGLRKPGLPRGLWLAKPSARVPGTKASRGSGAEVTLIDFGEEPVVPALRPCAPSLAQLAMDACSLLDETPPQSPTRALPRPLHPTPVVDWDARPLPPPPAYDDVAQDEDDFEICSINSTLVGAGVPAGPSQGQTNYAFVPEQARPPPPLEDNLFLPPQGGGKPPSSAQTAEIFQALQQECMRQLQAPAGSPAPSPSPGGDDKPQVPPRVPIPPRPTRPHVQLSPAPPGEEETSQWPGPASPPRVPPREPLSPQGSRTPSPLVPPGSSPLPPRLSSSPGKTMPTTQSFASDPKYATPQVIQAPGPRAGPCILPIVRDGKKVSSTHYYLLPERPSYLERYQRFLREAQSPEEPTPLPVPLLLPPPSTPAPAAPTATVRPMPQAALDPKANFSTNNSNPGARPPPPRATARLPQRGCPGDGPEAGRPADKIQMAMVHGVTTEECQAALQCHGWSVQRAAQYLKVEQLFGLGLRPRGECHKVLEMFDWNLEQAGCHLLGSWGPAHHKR

PAK2 (human) = PAK2 (human) (UniProt Q13177)
[1] = target: JAK1 JH1 catalytic (human) (UniProt P23458)
LIMK2 (human) = LIMK2 (human) (UniProt P53671)
LIMK2 (human), sequence (P53671 whole entry, looked up): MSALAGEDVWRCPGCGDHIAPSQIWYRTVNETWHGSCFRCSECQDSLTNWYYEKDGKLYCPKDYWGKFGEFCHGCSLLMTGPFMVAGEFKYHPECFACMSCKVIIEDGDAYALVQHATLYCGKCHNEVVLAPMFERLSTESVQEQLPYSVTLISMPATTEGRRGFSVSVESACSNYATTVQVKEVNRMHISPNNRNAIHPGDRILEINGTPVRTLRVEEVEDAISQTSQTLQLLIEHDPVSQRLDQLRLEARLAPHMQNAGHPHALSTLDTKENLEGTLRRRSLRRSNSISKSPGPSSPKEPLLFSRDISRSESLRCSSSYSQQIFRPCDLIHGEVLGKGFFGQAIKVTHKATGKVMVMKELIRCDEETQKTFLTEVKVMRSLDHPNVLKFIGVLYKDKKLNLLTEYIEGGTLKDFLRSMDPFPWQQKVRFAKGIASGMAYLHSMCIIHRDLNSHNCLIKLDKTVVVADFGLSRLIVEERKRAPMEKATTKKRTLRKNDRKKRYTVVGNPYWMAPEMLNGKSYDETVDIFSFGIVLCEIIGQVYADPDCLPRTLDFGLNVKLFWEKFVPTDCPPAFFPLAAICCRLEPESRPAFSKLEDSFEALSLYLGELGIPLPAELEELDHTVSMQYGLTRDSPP

ACVR1B (human) = ACVR1B (human) (UniProt P36896)
RPS6KA3 KD2 (human) = RPS6KA3 KD2 (human) (UniProt P51812)
MAP3K11 (human) = MAP3K11 (human) (UniProt Q16584)
NEK1 (human) = NEK1 (human) (UniProt Q96PY6)
BUB1 (human) = BUB1 (human) (UniProt O43683)
RPS6KA2 KD1 (human) = RPS6KA2 KD1 (human) (UniProt Q15349)
ITK (human) = ITK (human) (UniProt Q08881)
DYRK1A (human) = DYRK1A (human) (UniProt Q13627)
EPHB3 (human) = EPHB3 (human) (UniProt P54753)
EPHA5 (human) = EPHA5 (human) (UniProt P54756)
[2] = system: EGFR (human), P00533 [T790M]
PRKCI (human) = PRKCI (human) (UniProt P41743)
RPS6KA1 KD2 (human) = RPS6KA1 KD2 (human) (UniProt Q15418)
MAP3K2 (human) = MAP3K2 (human) (UniProt Q9Y2U5)
MAP3K2 (human), sequence (Q9Y2U5 whole entry, looked up): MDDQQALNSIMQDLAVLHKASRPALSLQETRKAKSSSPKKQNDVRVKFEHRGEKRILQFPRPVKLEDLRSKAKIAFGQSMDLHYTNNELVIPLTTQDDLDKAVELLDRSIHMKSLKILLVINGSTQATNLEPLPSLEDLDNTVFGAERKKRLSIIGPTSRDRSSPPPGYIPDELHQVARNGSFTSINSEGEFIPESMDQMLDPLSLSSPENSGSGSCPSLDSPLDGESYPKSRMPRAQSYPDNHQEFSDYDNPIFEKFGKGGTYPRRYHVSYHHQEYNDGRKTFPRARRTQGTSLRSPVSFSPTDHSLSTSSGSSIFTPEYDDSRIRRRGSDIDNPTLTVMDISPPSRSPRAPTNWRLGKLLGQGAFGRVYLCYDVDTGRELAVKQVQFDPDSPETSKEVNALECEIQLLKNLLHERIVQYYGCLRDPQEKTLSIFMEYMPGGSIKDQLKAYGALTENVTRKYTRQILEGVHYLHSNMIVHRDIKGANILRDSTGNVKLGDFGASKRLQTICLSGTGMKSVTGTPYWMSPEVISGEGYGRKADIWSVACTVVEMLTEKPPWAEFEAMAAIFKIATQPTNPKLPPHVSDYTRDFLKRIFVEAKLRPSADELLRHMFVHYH

HIPK3 (human) = HIPK3 (human) (UniProt Q9H422)
HIPK3 (human), sequence (Q9H422 whole entry, looked up): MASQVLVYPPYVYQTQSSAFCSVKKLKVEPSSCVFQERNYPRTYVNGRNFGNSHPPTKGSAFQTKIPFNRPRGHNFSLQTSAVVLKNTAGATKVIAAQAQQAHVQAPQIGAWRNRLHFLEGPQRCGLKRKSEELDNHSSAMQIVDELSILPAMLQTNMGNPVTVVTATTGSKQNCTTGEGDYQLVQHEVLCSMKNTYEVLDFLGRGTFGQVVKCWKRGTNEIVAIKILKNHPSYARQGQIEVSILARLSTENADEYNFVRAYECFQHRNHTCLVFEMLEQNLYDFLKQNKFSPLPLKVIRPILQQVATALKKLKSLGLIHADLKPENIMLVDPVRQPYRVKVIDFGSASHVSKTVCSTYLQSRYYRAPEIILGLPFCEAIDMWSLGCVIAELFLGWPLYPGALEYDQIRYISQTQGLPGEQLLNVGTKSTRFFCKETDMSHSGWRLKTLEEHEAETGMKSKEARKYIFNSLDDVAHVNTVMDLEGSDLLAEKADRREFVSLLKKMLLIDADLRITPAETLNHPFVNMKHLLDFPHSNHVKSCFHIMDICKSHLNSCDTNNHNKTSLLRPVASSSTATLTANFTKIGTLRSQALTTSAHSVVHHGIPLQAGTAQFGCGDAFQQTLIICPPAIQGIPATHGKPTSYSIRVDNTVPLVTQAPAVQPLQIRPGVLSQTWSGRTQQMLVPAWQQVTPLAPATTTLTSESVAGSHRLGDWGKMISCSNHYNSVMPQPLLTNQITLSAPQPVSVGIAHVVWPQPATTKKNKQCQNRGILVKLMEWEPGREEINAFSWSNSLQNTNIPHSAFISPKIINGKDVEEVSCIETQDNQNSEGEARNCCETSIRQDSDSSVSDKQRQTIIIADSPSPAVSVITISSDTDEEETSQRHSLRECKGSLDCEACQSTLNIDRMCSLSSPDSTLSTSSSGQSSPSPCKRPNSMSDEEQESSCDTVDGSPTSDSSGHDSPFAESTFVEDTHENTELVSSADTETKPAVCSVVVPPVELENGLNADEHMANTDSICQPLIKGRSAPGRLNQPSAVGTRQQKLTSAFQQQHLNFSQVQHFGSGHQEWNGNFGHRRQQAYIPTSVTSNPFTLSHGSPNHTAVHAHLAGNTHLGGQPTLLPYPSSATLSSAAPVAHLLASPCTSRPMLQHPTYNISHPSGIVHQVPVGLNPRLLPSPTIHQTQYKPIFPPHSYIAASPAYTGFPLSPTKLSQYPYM

FYN (human) = FYN (human) (UniProt P06241)
FYN (human), sequence (P06241 whole entry, looked up): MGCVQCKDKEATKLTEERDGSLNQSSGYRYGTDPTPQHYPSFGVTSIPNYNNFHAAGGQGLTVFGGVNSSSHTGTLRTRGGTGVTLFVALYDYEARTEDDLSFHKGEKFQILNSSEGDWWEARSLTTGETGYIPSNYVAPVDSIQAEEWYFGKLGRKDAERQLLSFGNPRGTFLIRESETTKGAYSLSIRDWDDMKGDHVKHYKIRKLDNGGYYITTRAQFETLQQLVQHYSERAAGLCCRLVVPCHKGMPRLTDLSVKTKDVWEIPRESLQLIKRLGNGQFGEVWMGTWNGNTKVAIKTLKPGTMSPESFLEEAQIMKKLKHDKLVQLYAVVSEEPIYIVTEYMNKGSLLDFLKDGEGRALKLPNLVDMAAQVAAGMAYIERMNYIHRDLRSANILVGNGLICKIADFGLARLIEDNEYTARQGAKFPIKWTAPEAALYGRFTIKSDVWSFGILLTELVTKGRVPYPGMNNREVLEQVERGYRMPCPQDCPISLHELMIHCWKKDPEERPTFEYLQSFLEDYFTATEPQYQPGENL

ALK (human) = ALK (human) (UniProt Q9UM73)
HIPK1 (human) = HIPK1 (human) (UniProt Q86Z02)
MUSK (human) = MUSK (human) (UniProt O15146)
STK35 (human) = STK35 (human) (UniProt Q8TDR2)
STK35 (human), sequence (Q8TDR2 whole entry, looked up): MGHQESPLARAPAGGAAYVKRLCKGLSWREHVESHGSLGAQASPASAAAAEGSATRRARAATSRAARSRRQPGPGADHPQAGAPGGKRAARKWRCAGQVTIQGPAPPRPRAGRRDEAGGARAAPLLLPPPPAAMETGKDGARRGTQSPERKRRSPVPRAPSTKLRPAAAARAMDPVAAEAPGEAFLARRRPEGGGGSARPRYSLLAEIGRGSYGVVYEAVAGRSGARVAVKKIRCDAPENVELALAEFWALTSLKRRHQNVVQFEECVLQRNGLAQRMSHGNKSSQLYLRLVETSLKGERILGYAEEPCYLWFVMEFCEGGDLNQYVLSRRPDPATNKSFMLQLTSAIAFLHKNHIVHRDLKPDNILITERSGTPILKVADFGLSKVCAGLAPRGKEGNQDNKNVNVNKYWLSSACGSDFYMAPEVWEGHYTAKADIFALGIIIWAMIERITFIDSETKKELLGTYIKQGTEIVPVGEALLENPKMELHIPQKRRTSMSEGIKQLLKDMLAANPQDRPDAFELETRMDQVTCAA

PIM1 (human) = PIM1 (human) (UniProt P11309)
CDK3 (human) = CDK3 (human) (UniProt Q00526)
WNK3 (human) = WNK3 (human) (UniProt Q9BYP7)
STK16 (human) = STK16 (human) (UniProt O75716)
MAP2K6 (human) = MAP2K6 (human) (UniProt P52564)
MAP2K6 (human), sequence (P52564 whole entry, looked up): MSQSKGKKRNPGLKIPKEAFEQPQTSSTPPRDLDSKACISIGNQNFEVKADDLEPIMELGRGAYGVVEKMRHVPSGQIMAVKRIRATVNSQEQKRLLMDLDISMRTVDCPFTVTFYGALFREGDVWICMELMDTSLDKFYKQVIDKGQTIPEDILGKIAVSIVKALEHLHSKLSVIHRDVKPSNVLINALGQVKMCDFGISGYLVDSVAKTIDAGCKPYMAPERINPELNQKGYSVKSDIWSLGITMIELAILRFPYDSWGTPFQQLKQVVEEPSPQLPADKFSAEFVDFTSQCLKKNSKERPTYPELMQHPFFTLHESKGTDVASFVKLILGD

CDK14 (human) = CDK14 (human) (UniProt O94921)
PIK3CA (human) = PIK3CA (human) (UniProt P42336)
DAPK2 (human) = DAPK2 (human) (UniProt Q9UIK4)
BRAF (human) = BRAF (human) (UniProt P15056)
ABL1 (human) = ABL1 (human) (UniProt P00519)
[3] = system: ABL1 (human), P00519 [H396P]

Structure (SMILES) | kinase still bound, per cent of control (HIPK2 (human)) [%] | kinase still bound, per cent of control (SRPK2 (human)) [%] | kinase still bound, per cent of control (RPS6KA6 KD1 (human)) [%] | kinase still bound, per cent of control (TNK2 (human)) [%] | kinase still bound, per cent of control (PAK2 (human)) [%] | kinase still bound, per cent of control [1] [%] | kinase still bound, per cent of control (ACVR1B (human)) [%] | kinase still bound, per cent of control (MAP3K11 (human)) [%] | kinase still bound, per cent of control (NEK1 (human)) [%] | kinase still bound, per cent of control (RPS6KA2 KD1 (human)) [%] | kinase still bound, per cent of control (ITK (human)) [%] | kinase still bound, per cent of control (DYRK1A (human)) [%] | kinase still bound, per cent of control (EPHB3 (human)) [%] | kinase still bound, per cent of control (EPHA5 (human)) [%] | kinase still bound, per cent of control (RPS6KA1 KD2 (human)) [%] | kinase still bound, per cent of control (MAP3K2 (human)) [%] | kinase still bound, per cent of control (HIPK3 (human)) [%] | kinase still bound, per cent of control (FYN (human)) [%] | kinase still bound, per cent of control (ALK (human)) [%] | kinase still bound, per cent of control (HIPK1 (human)) [%] | other results
O=C1NC(=O)/C(=C/c2ccc3nccc(-c4ccncc4)c3c2)S1 | 0.15 | 86 | 45 | 100 | 21 | 95 | 51 | 98 | 47 | 100 | 81 | 0 | 71 | 91 | 19 | 90 | 1.2 | 94 | 25 | 6.9 | kinase still bound, per cent of control (STK32A (human)): 83%; kinase still bound, per cent of control (SGK3 (human)): 66% and 84%; kinase still bound, per cent of control (LIMK2 (human)): 100%; kinase still bound, per cent of control (RPS6KA3 KD2 (human)): 70%; kinase still bound, per cent of control (BUB1 (human)): 12%; kinase still bound, per cent of control [2]: 76%; kinase still bound, per cent of control (PRKCI (human)): 67%; kinase still bound, per cent of control (MUSK (human)): 92%; kinase still bound, per cent of control (STK35 (human)): 49%; kinase still bound, per cent of control (PIM1 (human)): 1%; kinase still bound, per cent of control (CDK3 (human)): 87%; kinase still bound, per cent of control (WNK3 (human)): 86%; kinase still bound, per cent of control (STK16 (human)): 4.9%; kinase still bound, per cent of control (MAP2K6 (human)): 69%; kinase still bound, per cent of control (CDK14 (human)): 37%; kinase still bound, per cent of control (PIK3CA (human)): 0.05%; kinase still bound, per cent of control (DAPK2 (human)): 1.7%
COc1cc(N2CCN(C)CC2)ccc1Nc1ncc2c(n1)N(C)c1ccccc1C(=O)N2C | 100 | 100 | 100 | 3.2 | 100 | 100 | 100 | 100 | 100 | 100 | 100 | 100 | 100 | 100 | 18 | 32 | 100 | 100 | 16 | 100 | kinase still bound, per cent of control (BRAF (human)): 100%; kinase still bound, per cent of control (LIMK2 (human)): 100%; kinase still bound, per cent of control (ABL1 (human)): 100%; kinase still bound, per cent of control (MUSK (human)): 100%; kinase still bound, per cent of control (STK35 (human)): 100%; kinase still bound, per cent of control (PIM1 (human)): 100%; kinase still bound, per cent of control (CDK3 (human)): 100%; kinase still bound, per cent of control (STK16 (human)): 100%; kinase still bound, per cent of control [3]: 100%; kinase still bound, per cent of control (MAP2K6 (human)): 100%; kinase still bound, per cent of control (CDK14 (human)): 100%; kinase still bound, per cent of control (PIK3CA (human)): 100%; kinase still bound, per cent of control (DAPK2 (human)): 100%
N#CCNC(=O)c1ccc(-c2ccnc(Nc3ccc(N4CCOCC4)cc3)n2)cc1 | 15 | 30 | 78 | 93 | 100 | 13 | 38 | 95 | 42 | 100 | 98 | 66 | 100 | 87 | 80 | 100 | 17 | 78 | 100 | 8.9 | kinase still bound, per cent of control (BRAF (human)): 74%; kinase still bound, per cent of control (STK32A (human)): 100%; kinase still bound, per cent of control (SGK3 (human)): 59%; kinase still bound, per cent of control (LIMK2 (human)): 68%; kinase still bound, per cent of control (RPS6KA3 KD2 (human)): 100%; kinase still bound, per cent of control (BUB1 (human)): 3.5%; kinase still bound, per cent of control (PRKCI (human)): 75%; kinase still bound, per cent of control (ABL1 (human)): 54%; kinase still bound, per cent of control (MUSK (human)): 100%; kinase still bound, per cent of control (STK35 (human)): 57%; kinase still bound, per cent of control (PIM1 (human)): 100%; kinase still bound, per cent of control (CDK3 (human)): 100%; kinase still bound, per cent of control (WNK3 (human)): 90%; kinase still bound, per cent of control (STK16 (human)): 6.2%; kinase still bound, per cent of control [3]: 65%; kinase still bound, per cent of control (MAP2K6 (human)): 77%; kinase still bound, per cent of control (CDK14 (human)): 76%; kinase still bound, per cent of control (DAPK2 (human)): 41%
COc1cc2ncn(-c3cc(OCc4ccccc4C(F)(F)F)c(C(N)=O)s3)c2cc1OC | 89 | 34 | 18 | 54 | 96 | 100 | 76 | 81 | 65 | 61 | 98 | 75 | 76 | 90 | 63 | 100 | 77 | 48 | 100 | 84 | kinase still bound, per cent of control (BRAF (human)): 100%; kinase still bound, per cent of control (STK32A (human)): 82%; kinase still bound, per cent of control (SGK3 (human)): 83%; kinase still bound, per cent of control [2]: 100%; kinase still bound, per cent of control (PRKCI (human)): 72%; kinase still bound, per cent of control (ABL1 (human)): 60%; kinase still bound, per cent of control (MUSK (human)): 100%; kinase still bound, per cent of control (STK35 (human)): 56%; kinase still bound, per cent of control (PIM1 (human)): 89%; kinase still bound, per cent of control (CDK3 (human)): 100%; kinase still bound, per cent of control (STK16 (human)): 49%; kinase still bound, per cent of control (MAP2K6 (human)): 85%; kinase still bound, per cent of control (CDK14 (human)): 90%; kinase still bound, per cent of control (DAPK2 (human)): 36%
